# Where two headings read alike, the source gives them in different places.
# Experiments:
# [1] = test system: PSE-Luc/LNCaP cell line CN1013; test: Stably transfected PSE-Luc/LNCaP cell line CN1013 (and subclone CN1013.7), luciferase assay; settings: for inhibition of luciferase expression after induction with 1 nM R1881: CN1013, all anti-androgen concentrations examined; for concentration, relative to R1881, giving luciferase expression levels similar to R1881 / luciferase expression at physiological concentrations: CN1013, anti-androgen alone
# [2] = test system: PSE-Luc (PSA enhancer/promoter-luciferase) in LNCaP cells; test: Transient transfection of LNCaP cells with PSE-Luc, luciferase assay
# [3] = Metabolism of dihydrotestosterone in CN1013 cell line (Testosterone ELISA); settings: human, cn1013 cells
# CN1013 cells = test: as above
# [4] = test system: CN322 or CN355 in OVCAR, 293, PC3 cells; test: hKLK2 enhancer/promoter luciferase activity in other cell lines (OVCAR, 293, PC3); assay type: cell-based; settings: Homo sapiens, 48 h, read-out: fold induction of activity
# Protocol: FIG. 7 is a bar graph depicting the activity of the hKLK2 enhancer/promoter in various cell lines. Various cell lines were transfected with either CN322 or CN355, and, after an overnight incubation in complete medium, were incubated in the presence or absence of R1881. CN355 contains a 3.8 kb fragment from approximately -6200 to approximately -2400 of the hKLK2 enhancer fused to the minimal hKLK2 promoter to control luciferase expression. The cell lines used were: OVCAR, human ovarian adenocarcinoma; 293, transformed human primary embryonal kidney; PC3, human grade IV prostate adenocarcinoma; LNCaP, metastatic human prostate adenocarcinoma.
# (§1) This 3.8 kbp fragment was fused upstream of the minimal hKLK2 promoter and then cloned upstream of the luc gene, creating CN355. A variety of cell lines were transfected with CN322 or CN355 by incubating them with the complexes in complete media overnight. The complexes were then aspirated and the media was replaced with stripped serum media. The media in half of the plates was supplemented with 1 nM R1881. The cells were then harvested 48 hours after the removal of the DNA-lipid complexes and tested for luciferase activity.
# [5] = test system: CMV-Luc/LNCaP stable cell line; test: CMV-Luc/LNCaP stable cell line luciferase expression (control); assay type: cell-based, human; settings: 10-1000 nM androgen
# Protocol: CMV-Luc/LNCaP Cell Line. Transfections of the control plasmid, CMV-Luc, into LNCaP cells were done in the same fashion as for PSE-Luc. The stable cell line CN1006, containing CMV-Luc, was obtained by selection with G418. The luciferase assay was performed as described above.
# Luciferase Expression of CMV-Luc/LNCaP Stable Cell Line. LNCaP clones containing the CMV-Luc gene were screened for stable expression of the luciferase gene (i.e. selection of stable cell line). A 3-4 fold increase in expression levels over the uninduced cells was observed upon the addition of 10-1000 nM androgen. A similar androgen stimulation of CMV-Luc expression in transient transfection of LNCaP cells was reported by Pang et al., Hum. Gene Ther. (1995) 6:1417-1426. The slight increase in expression levels was attributed to cell proliferation resulting from increased R1881 addition.
# [6] = test system: hKLK2 promoter/enhancer-luciferase constructs in 293 cells; test: hKLK2 promoter/enhancer-driven luciferase expression in transfected 293 cells; assay type: cell-based, human; settings: 1 nM R1881
# Protocol: (§2) Knowing that the PSA enhancer is tissue specific, a series of experiments was conducted to determine if the same was true for the hKLK2 enhancer. In the first experiment, LNCaP cells (a PSA-producing prostate cancer cell line) and 293s (a human embryonic kidney cell line) were transfected with CN299 or CN322 (Example 2). Half of the dishes were supplemented with 1 nM R1881, and the cells were harvested 48 hours post transfection. […] The results of this experiment again support the conclusion that the hKLK2 enhancer is androgen inducible.
# [7] = test system: hKLK2 promoter/enhancer-luciferase constructs in LNCaP cells; test: hKLK2 promoter/enhancer-driven luciferase expression in transfected LNCaP cells; assay type: cell-based, human; settings: for fold induction at 0.001 µM: Homo sapiens, LNCaP, 48 h
# Description: To assess the function of the DNA segment containing the enhancer, a series of constructs was generated by inserting the hKLK2 5'-flanking region, shown schematically in FIG. 2, upstream of the luciferase reporter gene. The activity of these fragments was compared with that of CN299, a plasmid with the full hKLK2 promoter (-605 to +33) driving the expression of firefly luciferase. The constructs are as follows:
# To determine the effect of the 12 kbp 5'-flanking sequence on promoter activity, two constructs were created: CN299 and CN322. The hKLK2 promoter was cloned upstream of the luc gene to create CN299, as described in Example 2. The entire 12 kbp sequence upstream of the hKLK2 gene (including the promoter) was cloned upstream of the luc gene to create CN322, as described in Example 2. Each construct was then used to transfect LNCaP cells. The media in half of the dishes was supplemented with 0.5 nM R1881. The cells were harvested 48 hours post transfection and the luciferase activity was measured. […] At both R1881 concentrations tested, CN322 had higher activity than CN299.
# To determine if the hKLK2 5'-flanking sequence did indeed contain an androgen responsive element, two experiments were conducted. In the first experiment, LNCaP cells were transfected with CN322, the transformants were incubated in medium containing various concentrations of R1881, and 48 hours after transfection, luciferase activity was measured. […] Peak induction of activity was estimated at 1 nM R1881, about 9 fold over the 0 nM activity.
# as §2, §1
compound,measurement,setting,value
"C[C@]12CCC(=O)C[C@@H]1CC[C@@H]1[C@@H]2CC[C@]2(C)[C@@H](O)CC[C@@H]12 [DHT, dihydrotestosterone]",amounts required for comparable expression relative to R1881,[1]; CN1013,100-200 fold
same,amount required relative to R1881 to obtain comparable luciferase activity,[2],approximately 100 fold
same,luciferase expression,[2]; DHT 100 and 200 nM,"2,500-3,000 RLUs"
same,half-life at 0.01 µM,[3],~1.1 h
same,time within which metabolism occurs after addition to CN1013 cells,CN1013 cells,1 to 4 h
same,concentration when unexposed to CN1013 cells,CN1013 cells; medium without cells,remained constant
"C[C@]1(O)CC[C@H]2[C@@H]3CCC4=CC(=O)CCC4=C3C=C[C@@]21C [R1881, methyl trienolone]",concentration giving peak values of induction,[1]; CN1013,0.1 to 1 nM
same,EC50,"[1]; Homo sapiens, LNCaP, read-out: EC50 of luciferase induction",0.075 nM
same,fold induction of luciferase,[1]; subclone CN1013.7,100-200 fold
same,fold induction at 0.001 µM,[4],1 to 2
same,concentration giving peak levels of luciferase expression,[2],1 nM
same,luciferase expression,"[2]; 1-50 nM R1881, 48 hours","3,000-3,500 RLUs"
same,fold increase in expression levels over uninduced cells,[5],3-4 fold
same,change of luciferase activity,"[6]; CN299, 293 cells",reduction of activity
same,change of luciferase activity,"[6]; CN322, 293 cells",reduction of luciferase activity
same,response of CN322 luciferase activity to concentration,"[7]; CN322, LNCaP, 0-10 nM R1881",concentration dependent manner
same,fold induction of luciferase activity,"[7]; CN379, same assay methods, R1881",approximately 54 fold
same,fold induction at 0.001 µM,"[7]; read-out: fold induction of activity vs 0 nM R1881, CN299, LNCaP, 1 nM R1881, 48 hours",2 to 3
same,fold induction at 0.001 µM,"[7]; read-out: fold induction of activity vs 0 nM R1881, CN322, LNCaP, 1 nM R1881, 48 hours (Example 5 first experiment, FIG. 6)",17
same,fold induction at 0.001 µM,"[7]; read-out: fold induction of activity, CN322, LNCaP, 1 nM R1881, stripped serum media, 48 hours (FIG. 7)",~100
same,fold induction at 0.001 µM,"[7]; read-out: fold induction of activity, CN355, LNCaP, 1 nM R1881, stripped serum media, 48 hours (FIG. 7)",35
same,fold induction at 0.001 µM,"[7]; read-out: peak induction of luciferase activity over the 0 nM activity, CN322, LNCaP, 1 nM R1881, 48 hours after transfection",~9
CC(=O)O[C@]1(C(C)=O)CC[C@H]2[C@@H]3C=C(Cl)C4=CC(=O)[C@@H]5C[C@@H]5[C@]4(C)[C@H]3CC[C@@]21C [cyproterone acetate],inhibition of luciferase expression after induction with 1 nM R1881,[1],neither inhibition nor induction
same,"concentration, relative to R1881, giving luciferase expression levels similar to R1881",[1],"100-1,000 fold"
same,luciferase expression at physiological concentrations,[1],zero or minimal expression
CC(C)(O)C(=O)Nc1ccc([N+](=O)[O-])c(C(F)(F)F)c1 [hydroxyflutamide],inhibition of luciferase expression after induction with 1 nM R1881,[1],neither inhibition nor induction
same,"concentration, relative to R1881, giving luciferase expression levels similar to R1881",[1],"100-1,000 fold"
same,luciferase expression at physiological concentrations,[1],zero or minimal expression
CC1=C(/C=C/C(C)=C/C=C/C(C)=C/C(=O)O)C(C)(C)CCC1 [retinoic acid],induction or inhibition of CN1013 luciferase,"[1]; CN1013, non-steroidal ligand unrelated to androgen receptor",did not result in either induction or inhibition

# From patent US6051417A, “Prostate cancer drug screening using hKLK2 enhancer” (Calydon, Inc., priority 1997, dated 2000)
